# Data reported in patent US9290777B2, “Putative cytokinin receptor and methods for use thereof” (NATIONAL UNIVERSITY OF SINGAPORE, priority 2007, dated 2016).
# What was measured:
# [1] = target: T1, purified TAP-HOG1 (Arabidopsis thaliana, UniProt O23255); experiment: biochemical; format: binding; conditions: ITC, ligand injected into purified TAP-HOG1; KD = 1/KA; read-out: KD (dissociation constant)
# T1 construct: Protein A (ProtA part of the TAP tag, TEV site between ProtA and CBP) (N, cleaved yes); made in house; host or cells: transgenic Arabidopsis thaliana harbouring 35S:TAP-HOG1
# T1 sequence (O23255 other isoform, or with tags, fused parts or gaps with the stated changes): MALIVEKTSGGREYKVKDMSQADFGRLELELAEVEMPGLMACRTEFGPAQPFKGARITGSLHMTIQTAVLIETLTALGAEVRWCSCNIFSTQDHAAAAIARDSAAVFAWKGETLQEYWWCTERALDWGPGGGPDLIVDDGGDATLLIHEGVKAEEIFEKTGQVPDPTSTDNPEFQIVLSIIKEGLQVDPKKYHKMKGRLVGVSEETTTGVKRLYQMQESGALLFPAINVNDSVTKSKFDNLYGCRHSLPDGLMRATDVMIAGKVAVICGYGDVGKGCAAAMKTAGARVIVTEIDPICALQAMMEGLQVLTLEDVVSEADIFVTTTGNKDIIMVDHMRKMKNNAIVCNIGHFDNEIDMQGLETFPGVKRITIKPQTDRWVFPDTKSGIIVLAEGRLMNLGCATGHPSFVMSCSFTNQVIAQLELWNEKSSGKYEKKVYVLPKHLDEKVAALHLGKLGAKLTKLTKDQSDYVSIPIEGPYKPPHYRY
# Description: Cytokinin binding affinity and thermodynamic analysis of the interaction between HOG1 and cytokinins was examined by ITC (MCSITC, Microcal, Northampton, USA). Three naturally occurring cytokinins (zeatin, benzyladenine and isopentenyl adenine) and thidiazuron (an urea-derived synthetic cytokinin) were used. Additionally, adenosine and NAD were used as control molecules to verify the binding specificity of HOG1 to cytokinins. Data were analyzed by MICROCAL ORIGIN version 2.9 using the best-fit, nonlinear least-squares method for one binding site. The binding stoichiometry (n), and association constant (KA) were calculated from the fitted curves. Subsequently, KD was calculated as 1/KA. Raw heat data were corrected to baseline drift obtained from injections of 0.1 μM purified AHP1 into the sample cell containing 2 μM purified TAP-HOG1. Binding isotherms were created by plotting the heat peak areas against the molar ratio of AHP1 added to HOG1.
# Cytokinin binding affinity and thermodynamic analysis of the interaction between HOG1 and cytokinins was examined by ITC (MCSITC, Microcal, Northampton, USA). TAP-HOG1 fusion protein was purified using published protocols (Forler et al. supra) from transgenic Arabidopsis plants harboring the 35S:TAP-HOG1 construct. 0.01 μM benzyladenine (a naturally occurring cytokinin) and 0.1 μM of purified TAP-HOG1 protein were used for each ITC assay with 25 injections (each injection of 2 μl at […] intervals at 37° C.). Data were analyzed with MICROCAL ORIGIN version 2.9 using the best-fit, nonlinear least-squares method for one binding site. The binding stoichiometry (n), and association constant (KA) were calculated from the fitted curves. Subsequently, KD was calculated as 1/KA.
# [2] = tested on: ARR4; experiment: qRT-PCR of cytokinin responsive gene after BA pulse, fold change vs untreated wild type; format: cell-based, Arabidopsis thaliana
# Description: (§1) For quantitative real-time PCR (qRT-PCR) analysis of cytokinin-inducible gene expression, seeds were germinated on MS medium with 3% (w/v) sucrose and grown for 6 days. Cytokinin treatment was carried out by incubating seedlings in the same MS+sucrose liquid medium (no agar) supplemented with 0, 0.01, 0.1, 1 or 5 μM [solubilized in 0.1% dimethylsulfoxide (DMSO) and diluted with the MS medium] for 5 min, 15 min, 30 min or 1 h. The control seedlings were incubated with DMSO (0.1%, the concentration used to dissolve cytokinins for the treatment) for the corresponding durations and used for expression analysis. Before RNA preparation, WT, OE and AS seedlings were pooled and stored in RNAlater solution (Qiagen, Valencia, Calif.). Total RNA was extracted using the Rneasy Plant Mini Kit (Qiagen). SYBRgreen RT-PCR reagents (Applied Biosystems) were used to synthesize double-stranded cDNA. The number of transcripts present in biological replicates each of WT, OE and AS seedlings, with or without BA and DMSO, was determined from three independent replicates. Fold induction of the transcripts was calculated according to the manufacturer's instructions (ABI Prism 7700 Sequence Detection System, User Bulletin #2).
# [3] = tested on: ARR1 and ARR2; experiment: qRT-PCR of type-B ARRs after BA treatment; format: cell-based, Arabidopsis thaliana; conditions: transgenic lines
# Description: as §1
structure (smiles),measurement,setting,value
c1ccc(CNc2ncnc3nc[nH]c23)cc1 [benzyladenine],Kd,[1],20.6 nM
same,ARR4 fold change,"[2]; BA 0.01 μM, 5 min, AS1, ↑ up",4.12↑
same,ARR4 fold change,"[2]; BA 0.01 μM, 5 min, AS8, ↑ up",6.1↑
same,ARR4 fold change,"[2]; BA 0.01 μM, 5 min, AS21, ↑ up",8.01↑
same,ARR4 fold change,"[2]; BA 0.01 μM, 5 min, OE1, ↓ down",5.01↓
same,ARR4 fold change,"[2]; BA 0.01 μM, 5 min, OE12, ↓ down",5.87↓
same,ARR4 fold change,"[2]; BA 0.01 μM, 5 min, OE18, ↓ down",7.56↓
same,ARR4 fold change,"[2]; BA 0.01 μM, 5 min, Wild type, ↑ up",3.13↑
same,ARR4 fold change,"[2]; BA 0.01 μM, 15 min, AS1, ↑ up",4.57↑
same,ARR4 fold change,"[2]; BA 0.01 μM, 15 min, AS8, ↑ up",6.41↑
same,ARR4 fold change,"[2]; BA 0.01 μM, 15 min, AS21, ↑ up",8.39↑
same,ARR4 fold change,"[2]; BA 0.01 μM, 15 min, OE1, ↓ down",4.66↓
same,ARR4 fold change,"[2]; BA 0.01 μM, 15 min, OE12, ↓ down",5.56↓
same,ARR4 fold change,"[2]; BA 0.01 μM, 15 min, OE18, ↓ down",7.32↓
same,ARR4 fold change,"[2]; BA 0.01 μM, 15 min, Wild type, ↑ up",3.67↑
same,ARR4 fold change,"[2]; BA 0.01 μM, 30 min, AS1, ↑ up",4.98↑
same,ARR4 fold change,"[2]; BA 0.01 μM, 30 min, AS8, ↑ up",6.86↑
same,ARR4 fold change,"[2]; BA 0.01 μM, 30 min, AS21, ↑ up",8.53↑
same,ARR4 fold change,"[2]; BA 0.01 μM, 30 min, OE1, ↓ down",4.41↓
same,ARR4 fold change,"[2]; BA 0.01 μM, 30 min, OE12, ↓ down",5.13↓
same,ARR4 fold change,"[2]; BA 0.01 μM, 30 min, OE18, ↓ down",7.13↓
same,ARR4 fold change,"[2]; BA 0.01 μM, 30 min, Wild type, ↑ up",3.98↑
same,ARR4 fold change,"[2]; BA 0.01 μM, 1 h, AS1, ↑ up",5.2↑
same,ARR4 fold change,"[2]; BA 0.01 μM, 1 h, AS8, ↑ up",6.98↑
same,ARR4 fold change,"[2]; BA 0.01 μM, 1 h, AS21, ↑ up",8.99↑
same,ARR4 fold change,"[2]; BA 0.01 μM, 1 h, OE1, ↓ down",4.01↓
same,ARR4 fold change,"[2]; BA 0.01 μM, 1 h, OE12, ↓ down",4.06↓
same,ARR4 fold change,"[2]; BA 0.01 μM, 1 h, OE18, ↓ down",6.98↓
same,ARR4 fold change,"[2]; BA 0.01 μM, 1 h, Wild type, ↑ up",4.15↑
same,ARR4 fold change,"[2]; BA 0.1 μM, 5 min, AS1, ↑ up",5.14↑
same,ARR4 fold change,"[2]; BA 0.1 μM, 5 min, AS8, ↑ up",7.12↑
same,ARR4 fold change,"[2]; BA 0.1 μM, 5 min, AS21, ↑ up",9.11↑
same,ARR4 fold change,"[2]; BA 0.1 μM, 5 min, OE1, ↓ down",4.56↓
same,ARR4 fold change,"[2]; BA 0.1 μM, 5 min, OE12, ↓ down",4.91↓
same,ARR4 fold change,"[2]; BA 0.1 μM, 5 min, OE18, ↓ down",6.89↓
same,ARR4 fold change,"[2]; BA 0.1 μM, 5 min, Wild type, ↑ up",4.36↑
same,ARR4 fold change,"[2]; BA 0.1 μM, 15 min, AS1, ↑ up",5.39↑
same,ARR4 fold change,"[2]; BA 0.1 μM, 15 min, AS8, ↑ up",7.32↑
same,ARR4 fold change,"[2]; BA 0.1 μM, 15 min, AS21, ↑ up",9.26↑
same,ARR4 fold change,"[2]; BA 0.1 μM, 15 min, OE1, ↓ down",4.24↓
same,ARR4 fold change,"[2]; BA 0.1 μM, 15 min, OE12, ↓ down",4.71↓
same,ARR4 fold change,"[2]; BA 0.1 μM, 15 min, OE18, ↓ down",4.72↓
same,ARR4 fold change,"[2]; BA 0.1 μM, 15 min, Wild type, ↑ up",4.58↑
same,ARR4 fold change,"[2]; BA 0.1 μM, 30 min, AS1, ↑ up",5.69↑
same,ARR4 fold change,"[2]; BA 0.1 μM, 30 min, AS8, ↑ up",7.57↑
same,ARR4 fold change,"[2]; BA 0.1 μM, 30 min, AS21, ↑ up",9.48↑
same,ARR4 fold change,"[2]; BA 0.1 μM, 30 min, OE1, ↓ down",4.12↓
same,ARR4 fold change,"[2]; BA 0.1 μM, 30 min, OE12, ↓ down",4.59↓
same,ARR4 fold change,"[2]; BA 0.1 μM, 30 min, OE18, ↓ down",4.36↓
same,ARR4 fold change,"[2]; BA 0.1 μM, 30 min, Wild type, ↑ up",4.89↑
same,ARR4 fold change,"[2]; BA 0.1 μM, 1 h, AS1, ↑ up",5.98↑
same,ARR4 fold change,"[2]; BA 0.1 μM, 1 h, AS8, ↑ up",7.99↑
same,ARR4 fold change,"[2]; BA 0.1 μM, 1 h, AS21, ↑ up",9.83↑
same,ARR4 fold change,"[2]; BA 0.1 μM, 1 h, OE1, ↓ down",3.96↓
same,ARR4 fold change,"[2]; BA 0.1 μM, 1 h, OE12, ↓ down",4.21↓
same,ARR4 fold change,"[2]; BA 0.1 μM, 1 h, OE18, ↓ down",4.01↓
same,ARR4 fold change,"[2]; BA 0.1 μM, 1 h, Wild type, ↑ up",4.99↑
same,ARR4 fold change,"[2]; BA 1.0 μM, 5 min, AS1, ↑ up",6.43↑
same,ARR4 fold change,"[2]; BA 1.0 μM, 5 min, AS8, ↑ up",8.01↑
same,ARR4 fold change,"[2]; BA 1.0 μM, 5 min, AS21, ↑ up",9.93↑
same,ARR4 fold change,"[2]; BA 1.0 μM, 5 min, OE1, ↓ down",3.76↓
same,ARR4 fold change,"[2]; BA 1.0 μM, 5 min, OE12, ↓ down",4.19↓
same,ARR4 fold change,"[2]; BA 1.0 μM, 5 min, OE18, ↓ down",3.36↓
same,ARR4 fold change,"[2]; BA 1.0 μM, 5 min, Wild type, ↑ up",5.1↑
same,ARR4 fold change,"[2]; BA 1.0 μM, 15 min, AS1, ↑ up",6.68↑
same,ARR4 fold change,"[2]; BA 1.0 μM, 15 min, AS8, ↑ up",8.43↑
same,ARR4 fold change,"[2]; BA 1.0 μM, 15 min, AS21, ↑ up",10.02↑
same,ARR4 fold change,"[2]; BA 1.0 μM, 15 min, OE1, ↓ down",3.51↓
same,ARR4 fold change,"[2]; BA 1.0 μM, 15 min, OE12, ↓ down",4.01↓
same,ARR4 fold change,"[2]; BA 1.0 μM, 15 min, OE18, ↓ down",3.21↓
same,ARR4 fold change,"[2]; BA 1.0 μM, 15 min, Wild type, ↑ up",5.31↑
same,ARR4 fold change,"[2]; BA 1.0 μM, 30 min, AS1, ↑ up",6.73↑
same,ARR4 fold change,"[2]; BA 1.0 μM, 30 min, AS8, ↑ up",8.69↑
same,ARR4 fold change,"[2]; BA 1.0 μM, 30 min, AS21, ↑ up",10.35↑
same,ARR4 fold change,"[2]; BA 1.0 μM, 30 min, OE1, ↓ down",3.29↓
same,ARR4 fold change,"[2]; BA 1.0 μM, 30 min, OE12, ↓ down",3.89↓
same,ARR4 fold change,"[2]; BA 1.0 μM, 30 min, OE18, ↓ down",3.01↓
same,ARR4 fold change,"[2]; BA 1.0 μM, 30 min, Wild type, ↑ up",5.59↑
same,ARR4 fold change,"[2]; BA 1.0 μM, 1 h, AS1, ↑ up",7.01↑
same,ARR4 fold change,"[2]; BA 1.0 μM, 1 h, AS8, ↑ up",8.93↑
same,ARR4 fold change,"[2]; BA 1.0 μM, 1 h, AS21, ↑ up",10.76↑
same,ARR4 fold change,"[2]; BA 1.0 μM, 1 h, OE1, ↓ down",3.01↓
same,ARR4 fold change,"[2]; BA 1.0 μM, 1 h, OE12, ↓ down",3.56↓
same,ARR4 fold change,"[2]; BA 1.0 μM, 1 h, OE18, ↓ down",2.92↓
same,ARR4 fold change,"[2]; BA 1.0 μM, 1 h, Wild type, ↑ up",5.87↑
same,ARR4 fold change,"[2]; BA 5.0 μM, 5 min, AS1, ↑ up",6.98↑
same,ARR4 fold change,"[2]; BA 5.0 μM, 5 min, AS8, ↑ up",8.98↑
same,ARR4 fold change,"[2]; BA 5.0 μM, 5 min, AS21, ↑ up",10.43↑
same,ARR4 fold change,"[2]; BA 5.0 μM, 5 min, OE1, ↓ down",3.19↓
same,ARR4 fold change,"[2]; BA 5.0 μM, 5 min, OE12, ↓ down",3.87↓
same,ARR4 fold change,"[2]; BA 5.0 μM, 5 min, OE18, ↓ down",2.45↓
same,ARR4 fold change,"[2]; BA 5.0 μM, 5 min, Wild type, ↑ up",6.52↑
same,ARR4 fold change,"[2]; BA 5.0 μM, 15 min, AS1, ↑ up",7.01↑
same,ARR4 fold change,"[2]; BA 5.0 μM, 15 min, AS8, ↑ up",9.07↑
same,ARR4 fold change,"[2]; BA 5.0 μM, 15 min, AS21, ↑ up",10.54↑
same,ARR4 fold change,"[2]; BA 5.0 μM, 15 min, OE1, ↓ down",3.01↓
same,ARR4 fold change,"[2]; BA 5.0 μM, 15 min, OE12, ↓ down",3.62↓
same,ARR4 fold change,"[2]; BA 5.0 μM, 15 min, OE18, ↓ down",2.18↓
same,ARR4 fold change,"[2]; BA 5.0 μM, 15 min, Wild type, ↑ up",6.69↑
same,ARR4 fold change,"[2]; BA 5.0 μM, 30 min, AS1, ↑ up",7.23↑
same,ARR4 fold change,"[2]; BA 5.0 μM, 30 min, Wild type, ↑ up",6.89↑
same,ARR1 and ARR2 transcript levels,[3],not significantly affected
